One assay relates to HIV-1LAI K65R. As to the kind of experiment: p24 reduction assay in MT-2 cells, K65R. The assay is classed as cell-based. To be noted: for EC50: K65R; for Fold-resistance: K65R relative to wild type virus. As to the method:
(§1) Cells. MT-2 cells (AIDS Research and Reference Reagent Program, National Institute of Allergy and Infectious Diseases, National Institutes of Health) were maintained in RPMI 1640 supplemented with 10% fetal bovine serum (FBS; JRH Biosciences, Lenexa, Kans.), 10 mM HEPES buffer, 50 IU/ml penicillin and 50 μg/ml streptomycin.
(§2) Antiviral Susceptibility Assays. The antiviral activity of each compound was determined by inoculating MT-2 cells with HIV-1LAI at a multiplicity of infection (MOI) of 0.01 TCID50/cell, followed by incubation in the presence of three-fold serial drug dilutions (3 wells per dilution) (see Mellors, et. al., Antimicrob. Agents Chemother. 39:1087-1092). Five or seven days after infection, culture supernatants were harvested, lysed with 0.5% triton-X 100 and assayed for p24 antigen concentration using a commercial ELISA assay (DuPont, NEN Products, Wilmington, Del.). The antiviral activity of the compounds is expressed as the IC50, which is the concentration required to inhibit 50% of p24 antigen production. The fold-resistance of a test virus is calculated by dividing the IC50 of the test virus by the IC50 of the HIV-1LAI control virus.
(§3) Generation of Mutant Recombinant HIV-1. HIV-1 containing the desired mutations were generated by oligonucleotide directed mutagenesis (Altered Sites II, Promega) as previously described (Mellors, et. al., Molecular Pharm. 41:446-451). After mutagenesis, mutant RT was subcloned into the pxxHIV-1LAI cloning vector using the silent XmaI and XbaI restriction sites located at the 5′ and 3′ ends of RT. Clones were DNA sequenced to verify the presence of the desired mutation(s) and electroporated into MT-2 cells as described above to generate infectious mutant recombinant HIV-1.
(§4) Mutant RT was generated via oligonucleotide-directed mutagenesis and ligated into the pXXHIV-1LAI cloning vector. Cloning was facilitated by the presence of two silent restriction sites at the 5′ and 3′ ends (Xma1 and Xba1, respectively) of pXXHIV-1LAI RT. Infectious mutant recombinant HIV-1 was generated by electroporating MT-2 cells with mutated pXXHIV-1LAI clones. The presence of the desired mutations was verified by DNA sequencing.
The multi-drug resistant HIV-1 strains, 11163p1 and 11588p1, are human clinical isolates having the RT mutations indicated. HIV-1 strains treated with the lipid analogs of the present invention include wild type, e.g., xxLAI, and the like, single mutation, e.g., xxLAI MI 84V (resistant to 3TC), xxLAI L74V (resistant to ddI and ddC), xxLAI K65R (resistant to ddI, ddC, DAPD, DXG, tenofovir, and adefovir), xxLAI T215Y (resistant to AZT), and the like, double mutations, e.g., xxLAI M41 L/T215Y (resistant to AZT), xxLAI MI 84V/T215Y (resistant to 3TC and AZT), and the like, and multiple mutations, e.g., xxLAI 4XAZT ((D67N, K70R, T215Y, K219Q) resistant to AZT)), xxLAI 4XAZT/M184V ((D67N, K70R, M 184V, T215Y, K219Q) resistant to AZT and 3TC), xxLAI M5456-12 (AZT+NNRTI resistant: D67N, K70R, K103N, T215Y), xxLAI G2-3g (AZT/3TC co-resistant: M41L, D67N, M184V, H208Y, L210W, R211K, L214F, T215Y, 1293V, E297A), 11163 (multinucleoside resistant virsus: M41L, A62V, V751, F77L, K103N, F116Y, Q151M, Y181C, M184V), 11588 (multinucleoside resistant virsus: A62V, K65R, K70R, V751, F77L, F116Y, Q151M, M184V, K219Q), and the like.

The subject of the next assay is NL4-3 (wild type virus). As to the kind of experiment: p24 reduction assay in MT-2 cells, NL4-3. It counts as cell-based, HIV-1.
The test system of assay [1] is K (multinucleoside resistant recombinant virus V75I, F77L, F116Y, Q151M). The assay can be described thus: p24 reduction assay in MT-2 cells, virus K. The assay is classed as cell-based, HIV-1. To be noted: Table 4; for EC50: virus K, mean ± SD; for Fold-resistance: virus K relative to wild type virus. The method, then:
as §1, §2
The MNR panel consisted of a virus containing the mutations V75I, F77L, F116Y and […], a virus containing the T69S[SA insert], and a clinical isolate carrying the classic MNR genotype (62V/751/77L/116Y/151M). Each of the PFA invention compounds retained potency against these viruses with fold resistance values of <2.

The test system of the next assay is HIV-1LAI W88G. The assay can be described thus: p24 reduction assay in MT-2 cells, W88G. The assay is classed as cell-based. To be noted: for EC50: W88G. The method, then: as §1, §2, §3, §4
(§5) Invention compounds were also evaluated against a panel of HIV-1LAI derived recombinants resistant to PFA and the PFA invention compounds, as shown in Table 7.

A further assay deals with HIV-1LAI W88S. As to the kind of experiment: p24 reduction assay in MT-2 cells, W88S. It counts as cell-based. To be noted: Table 7; for EC50: W88S; for Fold-resistance: W88S relative to wild type virus. The method, then:
as §1, §2, §3, §4, §5

In a further assay the test system is HIV-1LAI 4XAZT/E89K. As to the kind of experiment: p24 reduction assay in MT-2 cells, 4XAZT/E89K. It counts as cell-based. The settings on record: Table 7; for EC50: 4XAZTE89K; for Fold-resistance: 4XAZTE89K relative to wild type virus. As to the method:
as §1, §2, §3, §4, §5

The subject of the next assay is HIV-1LAI 4XAZT/Q161L. As to the kind of experiment: p24 reduction assay in MT-2 cells, 4XAZT/Q161L. The assay is classed as cell-based. The settings on record: Table 7; for EC50: 4XAZTQ161L; for Fold-resistance: 4XAZTQ161L relative to wild type virus. As to the method:
as §1, §2, §3, §4, §5

Assay [2] deals with HIV-1LAI 4XAZT/Q161L/H208Y. The assay can be described thus: p24 reduction assay in MT-2 cells, 4XAZT/Q161L/H208Y. The assay is classed as cell-based. The settings on record: Table 7; for EC50: 4XAZTQ161L/H208Y; for Fold-resistance: 4XAZTQ161L/H208Y relative to wild type virus. The method, then: as §1, §2, §3, §4, §5
For a further assay, the system named is HIV-1LAI T215Y. As to the kind of experiment: p24 reduction assay in MT-2 cells, T215Y. It counts as cell-based. The settings on record: Table 1, MOI 0.01. As to the method: as §1, §2, §3
(§6) Mutant RT was generated via oligonucleotide-directed mutagenesis and ligated into the pXXHIV-1LAI cloning vector. Cloning was facilitated by the presence of two silent restriction sites at the 5′ and 3′ ends (Xma1 and Xba1, respectively) of pXXHIV-1LAI RT. […]

Another assay has as its system HIV-1LAI M184V/T215Y. As to the kind of experiment: p24 reduction assay in MT-2 cells, M184V/T215Y. The assay is classed as cell-based. The settings on record: Table 1, MOI 0.01. As to the method:
as §1, §2, §3, §6

[3] abbreviates: Human immunodeficiency virus 1, MT2.
The mark [4] stands for this setting: Table 7, W88G relative to wild type virus.

SMILES strings stand for the structures. Like-named read-outs stand apart in the source and are kept apart here. Bounds are passed on as bounds.

With `O=C(O)P(=O)(O)O` [PFA, phosphonoformate, reference compound], the EC50 – broadly, the concentration at which the effect is half-maximal – in the assay on HIV-1LAI K65R (Human immunodeficiency virus 1, MT2, Table 1, MOI 0.01) stood at 57.3 µM; with HIV-1LAI K65R (Human immunodeficiency virus 1, MT2, Table 3, mean ± SD), 67 ± 22.8 µM; in the assay on NL4-3 (wild type virus) (Human immunodeficiency virus 1, NL43, MT2, Table 4, mean ± SD), 15.1 ± 6.1 µM; in assay [1] (setting [3]), 21.4 ± 15.6 µM; with HIV-1LAI W88G (Human immunodeficiency virus 1, MT2, Table 7, read-out: EC50) it was 152 µM; with HIV-1LAI W88S (setting [3]), 67.1 µM. In addition, the EC50 with HIV-1LAI 4XAZT/E89K (setting [3]) came out at 134 µM; in the assay on HIV-1LAI 4XAZT/Q161L (setting [3]) it was 39.9 µM; in assay [2] (setting [3]), 43.1 µM. Further, the Fold-resistance result with HIV-1LAI K65R (Table 3) is on record as “(3.8)”; in [1], “(0.7)”; in the assay with HIV-1LAI W88G (setting [4]), 14.28 (11.7); in the assay on HIV-1LAI 4XAZT/Q161L, 9.40 (2.3); in assay [2], 17.50 (2.4). The compound also returned a Fold resistance in the assay on HIV-1LAI W88G ({}) of 6.2 fold.
On to `Cc1cn([C@H]2C[C@H](N=[N+]=[N-])[C@@H](CO)O2)c(=O)[nH]c1=O` [AZT, 3′-Azido-3′-deoxythymidine], for which the EC50 in the assay with HIV-1LAI W88G (Human immunodeficiency virus 1, MT2, Table 8, read-out: AZT EC50) was 0.019 ± 0.013 µM. The same compound displayed a Fold resistance in the assay on HIV-1LAI W88G (Table 8, W88G relative to wild type virus) of 0.9.
Consider `CCCCCCCCCCCCCCCCCCOC[C@H](COP(=O)(O)C(=O)O)OC` [MB-PFA, 1-O-octadecyl-2-O-methyl-sn-glycero-3-PFA], for which the concentration giving a half-maximal response (EC50) with HIV-1LAI K65R (Table 1, MOI 0.01) worked out at 1.24 µM; with HIV-1LAI K65R (Table 3, mean ± SD), 1.66 ± 0.72 µM; with HIV-1LAI T215Y, 0.27 µM; in the assay on HIV-1LAI M184V/T215Y, 0.54 µM; in the assay with NL4-3 (wild type virus) (Table 4, mean ± SD) it was 2.3 ± 1.9 µM; in assay [1], 2 ± 0.6 µM. In addition, the EC50 amounted to 5.88 µM with HIV-1LAI W88G (Table 7, read-out: EC50); 2.49 µM with HIV-1LAI W88S; 9.28 µM with HIV-1LAI 4XAZT/E89K; 1.87 µM in the assay on HIV-1LAI 4XAZT/Q161L. The Fold-resistance result with HIV-1LAI K65R (Table 3) is reported as “(3.3)”; in [1], “(0.87)”; with HIV-1LAI W88G (setting [4]), 4.42 (7.6); with HIV-1LAI W88S, 0.12 (3.2); in the assay on HIV-1LAI 4XAZT/E89K, 9.20 (11.1); in the assay on HIV-1LAI 4XAZT/Q161L it was 0.33 (2.2). Also, the Fold-resistance in assay [2] is given as 0.14 (2.7).
Consider `CCCCCCCCCCCCCCCCCCOC[C@@H](O)COP(=O)(O)C(=O)O` [B-PFA, 1-O-octadecyl-sn-glycero-3-PFA], for which the EC50 was determined as 17.7 µM in the assay on HIV-1LAI K65R (Table 1, MOI 0.01); 14.7 ± 6.61 µM in the assay on HIV-1LAI K65R (Table 3, mean ± SD); 0.84 µM with HIV-1LAI T215Y; 1.49 µM with HIV-1LAI M184V/T215Y; 2.6 ± 1.5 µM with NL4-3 (wild type virus) (Table 4, mean ± SD); 4.2 µM in assay [1]. In addition, the EC50 in the assay with HIV-1LAI W88G (Table 7, read-out: EC50) is > 30 µM; with HIV-1LAI W88S, 20.7 µM; with HIV-1LAI 4XAZT/E89K it was 17.4 µM; with HIV-1LAI 4XAZT/Q161L it was 6.64 µM; in [2], 6.2 µM. Besides, the Fold-resistance result is “(8.2)” in the assay with HIV-1LAI K65R (Table 3); “(1.6)” in [1]; “(>17.2)” in the assay on HIV-1LAI W88G (setting [4]); 1.20 (11.9) with HIV-1LAI W88S; 14.9 (6.6) in the assay with HIV-1LAI 4XAZT/E89K; 2.10 (2.5) with HIV-1LAI 4XAZT/Q161L. Further, in assay [2], the Fold-resistance was 0.85 (2.4).
As to `CCCCCCCCCCCCCCCCCCOC[C@H](COP(=O)(O)C(=O)O)OCC` [EB-PFA, 1-O-octadecyl-2-O-ethyl-sn-glycero-3-PFA], the half-maximal effective concentration (EC50) with HIV-1LAI K65R (Table 1, MOI 0.01) came to 3.22 µM; in the assay with HIV-1LAI K65R (Table 3, mean ± SD) it was 2.91 ± 1.3 µM; in the assay on HIV-1LAI T215Y it was 0.14 µM; in the assay with HIV-1LAI M184V/T215Y, 0.48 µM; in the assay with NL4-3 (wild type virus) (Table 4, mean ± SD), 0.2 ± 0.2 µM; in assay [1] it was 0.9 ± 0.7 µM. In addition, the EC50 in the assay with HIV-1LAI W88G (Table 7, read-out: EC50) is 6.8 µM; with HIV-1LAI W88S, 2.39 µM; in the assay on HIV-1LAI 4XAZT/E89K, 4.39 µM; in the assay with HIV-1LAI 4XAZT/Q161L, 1.18 µM; in assay [2] it was 2.02 µM. The Fold-resistance entry in the assay with HIV-1LAI K65R (Table 3) is reported as “(4.5)”; with HIV-1LAI W88G (setting [4]) it was 0.64 (7.6); in the assay with HIV-1LAI W88S, 0.15 (2.7); with HIV-1LAI 4XAZT/E89K, 4.59 (5.6); in assay [2] it was 0.54 (2.6). The Fold resistance in the assay with HIV-1LAI W88G (Example 6, recombinant virus encoding W88G) came to 9.4 fold.
